Measured values reported in PMC10251479, “PROTAC-Induced Glycogen Synthase Kinase 3β Degradation as a Potential Therapeutic Strategy for Alzheimer’s Disease” (ACS Chemical Neuroscience, 2023).

Columns and labels:
[1] = tested on: SH-SY5Y cells; assay: Neuroprotective effects against Aβ25-35 peptide in SH-SY5Y cells (MTT); format: cell-based, human; conditions: 0.5 and 1 μM for 2 h, then 3 h with Aβ25–35 10 μM
Description: Data are reported as mean ± SEM of three independent experiments. […]
measured (570 nm, reference filter 690 nm) using a multilabel plate reader (VICTOR™ X3, PerkinElmer, Waltham, MA, USA).[11] Data are reported as mean ± SEM of three independent experiments. The neurotoxicity was expressed as a percentage of control cells and calculated by the formula: 100 – ((absorbance of treated neurons/absorbance of untreated neurons) × 100). […]
analysis was performed using one-way ANOVA with the Dunnett post hoc test. Differences were considered significant at p < 0.05. Analyses were performed using GraphPad PRISM software (version 5.0; GraphPad Software, La Jolla, CA, USA) on a Windows platform.
11. PAMPA BBB permeation studies.
Prediction of the brain penetration was evaluated using a parallel artificial membrane permeability assay (PAMPA).[12] Ten commercial drugs, PBS at pH 7.4, EtOH, and dodecane were purchased from Sigma- Aldrich, Acros organics, Merck, and Fluka. The porcine polar brain lipid (PBL) was from Avanti Polar Lipids. The donor plate was a 96-well filtrate plate (Multiscreen® IP Sterile Plate PDVF […]
both from Millipore. Filter PDVF membrane units (diameter 30 mm, pore size 0.45 µm) from Symta were used to filter the samples. A 96-well plate UV reader (Biteck Instruments, Synergy H4 Hibrid Reader) was used for the UV measurements.
12 mg of promazine) were dissolved in 1 mL of EtOH. […]

[2] = target: GSK-3β protein (Homo sapiens, UniProt P49841); assay: GSK-3β degradation by Western blotting in SH-SY5Y cells; format: cell-based; parameters: endogenous in cells; host or cells: SH-SY5Y
Chain of GSK-3β protein (P49841 whole entry): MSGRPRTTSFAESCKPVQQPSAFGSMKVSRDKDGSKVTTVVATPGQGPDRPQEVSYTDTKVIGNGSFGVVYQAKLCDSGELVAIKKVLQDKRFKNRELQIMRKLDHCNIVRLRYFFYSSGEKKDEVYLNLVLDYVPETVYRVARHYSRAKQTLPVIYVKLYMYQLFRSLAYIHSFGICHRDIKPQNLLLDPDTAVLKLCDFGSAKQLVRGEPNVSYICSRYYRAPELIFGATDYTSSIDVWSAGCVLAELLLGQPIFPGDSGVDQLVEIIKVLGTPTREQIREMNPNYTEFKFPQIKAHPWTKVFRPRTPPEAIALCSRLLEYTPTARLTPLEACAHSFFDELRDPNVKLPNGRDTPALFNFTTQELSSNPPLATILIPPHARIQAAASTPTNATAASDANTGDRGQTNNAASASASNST
Description: Determination of GSK-3β degradation by Western Blotting
At the end of incubation, cells were trypsinized and the cellular pellet was resuspended in complete lysis buffer containing leupeptin (2 µg/mL, Sigma-Aldrich), phenylmethylsulfonyl fluoride (PMSF, 100 µg/mL, Sigma-Aldrich) and a cocktail of protease/phosphatase inhibitors (100×). The protein concentration was determined using the Bradford method (Bio-Rad Laboratories Srl, Hercules, CA, USA). The protein lysates (50 µg per […]
polyacrylamide gels, Bio-Rad Laboratories SrL) and electroblotted onto 0.45 µm nitrocellulose membranes. Membranes were incubated overnight at 4 °C with primary antibody recognizing GSK-3β (1:1000, Cell Signaling Technologies Inc, Danvers, MA, USA). Membranes were then washed with TRIS-buffered saline-T (TBS + 0.05% Tween20), and then incubated with horseradish peroxidase (POD) linked anti-rabbit secondary antibody (1:2000, GE Healthcare, Chicago, IL, USA).
Immunoreactive bands were visualized by enhanced chemiluminescence (ECL, Bio-Rad Laboratories Srl). The same membranes were stripped and reprobed with anti β-actin (1:1000, Sigma-Aldrich). Data were normalized on the β-actin bands and analyzed by densitometry, using the Quantity One software (Bio-Rad Laboratories Srl).[9] […]

O=C(Cn1cc(C2=C(c3ccc(Cl)cc3Cl)C(=O)NC2=O)c2ccccc21)NCCCOCCCCOCCCNc1cccc2c1C(=O)N(C1CCC(=O)NC1=O)C2=O (stereo not drawn) [Compound 1]
neurotoxicity induced by Aβ25–35 peptide [1]: markedly reduced the neurotoxicity induced by Aβ25–35 peptide
total GSK-3β protein level ([2]; 10 μM, 48 h, Western blotting): significantly decreased the total level of GSK-3β protein
DC50 ([2]; 48 h, 0.5, 1, 5 and 10 μM, read-out: half-maximal degradation (DC50)): 6.22 µM
GSK-3β protein level, dose dependence ([2]; 48 h at 0.5, 1, 5 and 10 μM): significantly decreased GSK-3β protein level at all tested concentrations in a dose-dependent manner
total GSK-3β protein level in the presence of lactacystin ([2]; compound 10 μM, 24 h, lactacystin 5 μM): had no effect on the total GSK-3β protein level
concentration from which GSK-3β is degraded ([2]; dose-dependent): ≥ 0.5 µM
